Source: patent US20230295234A1, “ANTIMICROBIAL PEPTIDOMIMETICS” (SPEXIS AG, priority 2020, published 2023)
Peptide text beside a SMILES is read from it.

How the values were obtained:
[1] = tested on: Escherichia coli ATCC 25922; conditions: ATCC 25922
Summary of the method: (§1)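 Standardized inocula (0.5 McFarland in saline, then diluted in MHII broth to approximately 5×10^5 CFU/mL) were exposed to two-fold dilution series of each peptide in the presence of polysorbate 80 (0.002% final).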

[2] = tested on: Escherichia coli MCR-1 Af 45; conditions: MCR-1 Af 45
Summary of the method: as §1

[3] = tested on: Klebsiella pneumoniae SSI3010; conditions: SSI3010
Summary of the method: as §1

[4] = tested on: human red blood cells (hRBC); test: Hemolysis of human red blood cells; assay type: cell-based; conditions: red cells of human, 1 h
Summary of the method: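 Percent hemolysis is OD540 of peptide-treated supernatant relative to water-lysed cells. Each peptide was tested at 200 μg/mL against 20% (v/v) washed human erythrocytes. Incubation was 1 h at 37 °C, 300 rpm.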

SMILES	Escherichia coli ATCC 25922 MIC [1] [mg/L]	Escherichia coli MCR-1 Af 45 MIC [2] [mg/L]	Klebsiella pneumoniae SSI3010 MIC [3] [mg/L]	Hemolysis at 0.2 g/L [4] [%]
CCCC[C@H](NC(=O)[C@H](CCCNC(=N)N)NC(=O)[C@H](CCCNC(=N)N)NC(=O)[C@@H]1CSSC[C@H](NC(=O)[C@H](Cc2ccc(O)cc2)NC(=O)[C@@H](NC(=O)[C@@H](NC(=O)[C@@H]2CCCN2C(=O)[C@@H](NC(=O)[C@@H]2CCCN2C(=O)[C@H](CCCCN)NC(=O)[C@@H](N)CCCCN)C(C)C)[C@@H](C)CC)[C@@H](C)CC)C(=O)N[C@@H](CC(N)=O)C(=O)N[C@@H](CCCNC(=N)N)C(=O)N[C@@H](CCN)C(=O)N[C@@H]([C@@H](C)O)C(=O)N[C@H](CCN)C(=O)N[C@@H](CCCCN)C(=O)N1)C(=O)O [Example 68] (HELM PEPTIDE1{K.K.P.V.P.I.I.Y.C.N.R.[Dab].T.[NCC[C@@H](N[*:1])C(=O)[*:2]].K.C.R.R.[Nle]}$PEPTIDE1,PEPTIDE1,9:R3-16:R3$$$V2.0)	0.03125	0.0625	≤0.125	0
CCCC[C@H](NC(=O)[C@H](CCCNC(=N)N)NC(=O)[C@H](CCN)NC(=O)[C@H]1NC(=O)[C@H](CCCCN)NC(=O)[C@@H](CCN)NC(=O)[C@H]([C@@H](C)O)NC(=O)[C@H](CCN)NC(=O)[C@H](CCCNC(=N)N)NC(=O)[C@H](CC(N)=O)NC(=O)[C@@H](NC(=O)[C@H](Cc2ccc(O)cc2)NC(=O)[C@@H](NC(=O)[C@@H](NC(=O)[C@@H]2CCCN2C(=O)[C@@H](NC(=O)[C@@H]2CCCN2C(=O)[C@H](CCCNC(=N)N)NC(=O)[C@@H](N)CCCCN)C(C)C)[C@@H](C)CC)[C@@H](C)CC)CSSC1(C)C)C(=O)O [Example 73] (HELM PEPTIDE1{K.R.P.V.P.I.I.Y.C.N.R.[Dab].T.[NCC[C@@H](N[*:1])C(=O)[*:2]].K.[Pen].[Dab].R.[Nle]}$PEPTIDE1,PEPTIDE1,9:R3-16:R3$$$V2.0)	≤0.125	0.0625	0.125	0
CCCC[C@H](NC(=O)[C@H](CCCNC(=N)N)NC(=O)[C@H](CCN)NC(=O)[C@@H]1CSSC[C@H](NC(=O)[C@H](Cc2ccc(O)cc2)NC(=O)[C@H](CCCNC(=N)N)NC(=O)[C@@H](NC(=O)[C@@H]2C[C@@H](N)CN2C(=O)[C@@H](NC(=O)[C@@H]2CCCN2C(=O)[C@H](CCCCN)NC(=O)[C@@H](N)CCCCN)C(C)C)[C@@H](C)CC)C(=O)N[C@@H](CC(N)=O)C(=O)N[C@@H](CCCNC(=N)N)C(=O)N[C@@H](CCCNC(=N)N)C(=O)N[C@@H]([C@@H](C)O)C(=O)N[C@H](CCN)C(=O)N[C@@H](CCCCN)C(=O)N1)C(=O)O [Example 74] (HELM PEPTIDE1{K.K.P.V.[N[C@@H]1C[C@@H](C(=O)[*:2])N([*:1])C1].I.R.Y.C.N.R.R.T.[NCC[C@@H](N[*:1])C(=O)[*:2]].K.C.[Dab].R.[Nle]}$PEPTIDE1,PEPTIDE1,9:R3-16:R3$$$V2.0)	0.03125	0.0625	0.0625	0
CCCC[C@H](NC(=O)[C@H](CCCNC(=N)N)NC(=O)[C@H](CCN)NC(=O)[C@@H]1CSSC[C@H](NC(=O)[C@H](Cc2ccc(O)cc2)NC(=O)[C@H](Cc2c[nH]cn2)NC(=O)[C@@H](NC(=O)[C@@H]2CCCN2C(=O)[C@@H](NC(=O)[C@@H](CCCCN)NC(=O)[C@H](CCCCN)NC(=O)[C@@H](N)CCCCN)C(C)C)[C@@H](C)CC)C(=O)N[C@@H](CC(N)=O)C(=O)N[C@@H](CCCNC(=N)N)C(=O)N[C@@H](CCCNC(=N)N)C(=O)N[C@@H]([C@@H](C)O)C(=O)N[C@H](CCN)C(=O)N[C@@H](CCCCN)C(=O)N1)C(=O)O [Example 77] (HELM PEPTIDE1{K.K.[dK].V.P.I.H.Y.C.N.R.R.T.[NCC[C@@H](N[*:1])C(=O)[*:2]].K.C.[Dab].R.[Nle]}$PEPTIDE1,PEPTIDE1,9:R3-16:R3$$$V2.0)	0.125	0.0625	0.25	0

Continued, in another order:

Escherichia coli ATCC 25922 MIC [1] [mg/L]	Escherichia coli MCR-1 Af 45 MIC [2] [mg/L]	Klebsiella pneumoniae SSI3010 MIC [3] [mg/L]	SMILES	Hemolysis at 0.2 g/L [4] [%]
0.0625	0.125	0.125	CCCC[C@H](NC(=O)[C@H](CCCNC(=N)N)NC(=O)[C@H](CCC(N)=O)NC(=O)[C@@H]1CSSC[C@H](NC(=O)[C@H](Cc2ccc(O)cc2)NC(=O)[C@@H](NC(=O)[C@@H](NC(=O)[C@@H]2CCCN2C(=O)[C@@H](NC(=O)[C@@H]2CCCN2C(=O)[C@H](CCCCN)NC(=O)[C@@H](N)CCCCN)C(C)C)[C@@H](C)CC)[C@@H](C)CC)C(=O)N[C@@H](CC(N)=O)C(=O)N[C@@H](CCCNC(=N)N)C(=O)N[C@@H](CCCNC(=N)N)C(=O)N[C@@H]([C@@H](C)O)C(=O)N[C@H](CCN)C(=O)N[C@@H](CCN)C(=O)N1)C(=O)O [Example 69] (HELM PEPTIDE1{K.K.P.V.P.I.I.Y.C.N.R.R.T.[NCC[C@@H](N[*:1])C(=O)[*:2]].[Dab].C.Q.R.[Nle]}$PEPTIDE1,PEPTIDE1,9:R3-16:R3$$$V2.0)	0
0.03125	0.0625	0.125	CCCC[C@H](NC(=O)[C@H](CCCNC(=N)N)NC(=O)[C@H](CCN)NC(=O)[C@@H]1CSSC[C@H](NC(=O)[C@H](Cc2ccc(O)cc2)NC(=O)[C@@H](NC(=O)[C@@H](NC(=O)[C@@H]2CCCN2C(=O)[C@@H](NC(=O)[C@@H]2CCCN2C(=O)[C@H](CCCCN)NC(=O)[C@H](N)CCCCN)C(C)C)[C@@H](C)CC)[C@@H](C)CC)C(=O)N[C@@H](CC(N)=O)C(=O)N[C@@H](CCCNC(=N)N)C(=O)N[C@@H](CCCNC(=N)N)C(=O)N[C@@H]([C@@H](C)O)C(=O)N[C@H](CCN)C(=O)N[C@@H](CCCCN)C(=O)N1)C(=O)O [Example 70] (HELM PEPTIDE1{[dK].K.P.V.P.I.I.Y.C.N.R.R.T.[NCC[C@@H](N[*:1])C(=O)[*:2]].K.C.[Dab].R.[Nle]}$PEPTIDE1,PEPTIDE1,9:R3-16:R3$$$V2.0)	0
0.0625	0.0625	0.0625	CC[C@H](C)[C@H](NC(=O)[C@@H](NC(=O)[C@@H]1CCCN1C(=O)[C@@H](NC(=O)[C@@H]1CCCN1C(=O)[C@H](CCCNC(=N)N)NC(=O)[C@@H](N)CCCCN)C(C)C)[C@@H](C)CC)C(=O)N[C@@H](Cc1ccc(O)cc1)C(=O)N[C@H]1CSSC[C@@H](C(=O)N[C@@H](CCN)C(=O)N[C@@H](CCCNC(=N)N)C(=O)N[C@@H](Cc2ccc(O)cc2)C(=O)O)NC(=O)[C@H](CCCCN)NC(=O)[C@@H](CCN)NC(=O)[C@H]([C@@H](C)O)NC(=O)[C@H](CCN)NC(=O)[C@H](CCCNC(=N)N)NC(=O)[C@H](CC(N)=O)NC1=O [Example 71] (HELM PEPTIDE1{K.R.P.V.P.I.I.Y.C.N.R.[Dab].T.[NCC[C@@H](N[*:1])C(=O)[*:2]].K.C.[Dab].R.Y}$PEPTIDE1,PEPTIDE1,9:R3-16:R3$$$V2.0)	0
≤0.0625	0.0625	≤0.25	CCCC[C@H](NC(=O)[C@H](CCCNC(=N)N)NC(=O)[C@H](CCN)NC(=O)[C@@H]1CSSC[C@H](NC(=O)[C@H](Cc2ccc(O)cc2)NC(=O)[C@H](CCCNC(=N)N)NC(=O)[C@@H](NC(=O)[C@@H]2CCCN2C(=O)[C@@H](NC(=O)[C@@H]2CCCN2C(=O)[C@H](CCCNC(=N)N)NC(=O)[C@@H](N)CCCCN)C(C)C)[C@@H](C)CC)C(=O)N[C@@H](CC(N)=O)C(=O)N[C@@H](CCCNC(=N)N)C(=O)N[C@@H](CCN)C(=O)N[C@@H]([C@@H](C)O)C(=O)N[C@H](CCN)C(=O)N[C@@H](CCCCN)C(=O)N1)C(=O)O [Example 72] (HELM PEPTIDE1{K.R.P.V.P.I.R.Y.C.N.R.[Dab].T.[NCC[C@@H](N[*:1])C(=O)[*:2]].K.C.[Dab].R.[Nle]}$PEPTIDE1,PEPTIDE1,9:R3-16:R3$$$V2.0)	0
≤0.0625	0.0625	0.0625	CCCC[C@H](NC(=O)[C@H](CCCNC(=N)N)NC(=O)[C@H](CCN)NC(=O)[C@@H]1CSSC[C@H](NC(=O)[C@H](Cc2ccc(O)cc2)NC(=O)[C@H](CCCNC(=N)N)NC(=O)[C@@H](NC(=O)[C@@H]2CCCN2C(=O)[C@@H](NC(=O)[C@@H]2CCCN2C(=O)[C@H](CCCNC(=N)N)NC(=O)[C@@H](N)CCCCN)C(C)C)[C@@H](C)CC)C(=O)N[C@@H](CC(N)=O)C(=O)N[C@@H](CCCNC(=N)N)C(=O)N[C@@H](CCCNC(=N)N)C(=O)N[C@@H]([C@@H](C)O)C(=O)N[C@H](CCN)C(=O)N[C@@H](CCCCN)C(=O)N1)C(=O)O [Example 75] (HELM PEPTIDE1{K.R.P.V.P.I.R.Y.C.N.R.R.T.[NCC[C@@H](N[*:1])C(=O)[*:2]].K.C.[Dab].R.[Nle]}$PEPTIDE1,PEPTIDE1,9:R3-16:R3$$$V2.0)	0
0.0625	≤0.03125	0.125	CCCC[C@H](NC(=O)[C@H](CCCNC(=N)N)NC(=O)[C@H](CCN)NC(=O)[C@@H]1CSSC[C@H](NC(=O)[C@H](Cc2ccc(O)cc2)NC(=O)[C@@H](NC(=O)[C@@H](NC(=O)[C@@H]2CCCN2C(=O)[C@@H](NC(=O)[C@@H](CCCCN)NC(=O)[C@H](CCCCN)NC(=O)[C@H](N)C(C)C)C(C)C)[C@@H](C)CC)[C@@H](C)CC)C(=O)N[C@@H](CC(N)=O)C(=O)N[C@@H](CCCNC(=N)N)C(=O)N[C@@H](CCCNC(=N)N)C(=O)N[C@@H]([C@@H](C)O)C(=O)N[C@H](CCN)C(=O)N[C@@H](CCCCN)C(=O)N1)C(=O)O [Example 76] (HELM PEPTIDE1{[dV].K.[dK].V.P.I.I.Y.C.N.R.R.T.[NCC[C@@H](N[*:1])C(=O)[*:2]].K.C.[Dab].R.[Nle]}$PEPTIDE1,PEPTIDE1,9:R3-16:R3$$$V2.0)	0
